Here are results for 31 molecules from patent US20260193268A1, “TRICYCLIC PI3Ka INHIBITOR, PREPARATION METHOD THEREFOR, AND PHARMACEUTICAL USE THEREOF” (WIGEN BIOMEDICINE TECHNOLOGY (SHANGHAI) CO., LTD., priority 2022, published 2026).

Broadly, the IC50 is the midpoint of a concentration-inhibition curve.

Where two headings read alike, the source gives them in different places.

Assay [1] has as its system HCC1954 cells (with PI3Kα H1047R mutation). In words: In vitro inhibition of HCC1954 cell proliferation (CellTiter-Lumi). The class given is cell-based. The conditions noted are these: Homo sapiens, HCC1954, 144 h, HCC1954 cells, 144 h, CellTiter-Lumi. On the procedure:
Assay for In Vitro Inhibition of HCC1954 Cell Proliferation by Compounds of the Present Disclosure
The growth of the cells was evaluated, and the IC50 for the inhibition of cell growth by the compounds was calculated.

Assay [2] deals with MCF-7 cells (with PI3Kα E545K mutation). The assay is described as follows: In vitro inhibition of MCF-7 cell proliferation (CellTiter-Lumi). In kind it is cell-based. The following applies: Homo sapiens, MCF7, 144 h. An outline of the steps:
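Growth IC50 derived from ATP luminescence (CellTiter-Lumi) after 144 h exposure of MCF-7 cells carrying PI3Kα E545K, plated 2000 cells/well and dosed with serial dilutions one day after seeding.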

Where [3] appears, read: class symbols, read-out: Inhibitory activity against HCC1954 cells (IC50), class symbols.
The mark [4] stands for this setting: class symbols, read-out: Inhibitory activity against MCF-7 cells (IC50), class symbols.
[5] abbreviates: numeric values, read-out: Inhibitory activity against HCC1954 cells (IC50).
Setting [6] is: numeric values, read-out: Inhibitory activity against MCF-7 cells (IC50).

In the case of `CN(C1COC1)C(C)(C)C=C(C#N)C(=O)Nc1ccc(N2CC(N3CCN(c4ccc5c(c4)-c4nc(N6C(=O)OC[C@H]6C(F)F)cn4CCO5)CC3)C2)c(F)c1` [Compound 220], the concentration for half-maximal inhibition (IC50) in assay [1] (setting [3]) and in assay [2] (setting [4]) was under 50 nM in each case.
With `CC1(C=C(C#N)C(=O)Nc2cnc(N3CC(N4CCN(c5ccc6c(c5)-c5nc(N7C(=O)OC[C@H]7C(F)F)cn5CCO6)CC4)C3)nc2)COC1` [Compound 269], the IC50 in assay [1] (setting [3]) and in assay [2] (setting [4]) was under 50 nM each time.
For `CNC/C=C/C(=O)Nc1ccc(N2CC(N3CCN(c4ccc5c(c4)-c4nc(N6C(=O)OC[C@H]6C(F)F)cn4CCO5)CC3)C2)cc1` [Compound 186], the half-maximal inhibitory concentration (IC50) in assay [1] (setting [5]) stood at 32 nM; in assay [2] (setting [6]), 4.3 nM.
On the same counts, the results for `C=CC(=O)N1CC(N2CCC(CN3CC=C(c4ccc5c(c4)-c4nc(N6C(=O)OC[C@H]6C(F)F)cn4CCO5)CC3)CC2)C1` [Compound 88] are 212 nM and 32 nM.
Regarding `C=C(F)C(=O)Nc1ccc(N2CC(CN3CCN(c4ccc5c(c4)-c4nc(N6C(=O)OC[C@H]6C(F)F)cn4CCO5)CC3)C2)cc1` [Compound 46], the figures for the half-inhibitory concentration (IC50) in assay [1] (setting [5]) and in assay [2] (setting [6]) were 306 nM and 74 nM, respectively.
`C=CC(=O)Nc1ccc2c(c1)CCN(CC#Cc1ccc3c(c1)-c1nc(N4C(=O)OC[C@H]4C(F)F)cn1CCO3)C2` [Compound 200]: the 50% inhibitory concentration (IC50) is 50 to 100 nM in assay [1] (setting [3]) and under 50 nM in assay [2] (setting [4]).
Regarding `C=CC(=O)N1CCC(CN2CC3(CCN(c4ccc5c(c4)-c4nc(N6C(=O)OC[C@H]6C(F)F)cn4CCO5)CC3)C2)CC1` [Compound 24], the IC50 in assay [1] (setting [5]) is over 1000 nM; in assay [2] (setting [6]), 1120 nM.
Turning to `Cc1nc(-c2cn3c(n2)-c2cc(N4CCN(C5CN(c6ccc(NC(=O)C(C#N)=CC(C)(C)C)cn6)C5)CC4)ccc2OCC3)n(C(C)C)n1` [Compound 368], the half-maximal inhibitory concentration (IC50) in assay [1] (setting [3]) and in assay [2] (setting [4]) was under 50 nM each time.
As for `C=CC(=O)Nc1ccc(N2CCC(N3CCN(c4ccc5c(c4)-c4nc(N6C(=O)OC[C@H]6C(F)F)cn4CCO5)CC3)C2)cc1` (single isomer, unassigned) [Compound 29], the results for the IC50 in assay [1] (setting [5]) and in assay [2] (setting [6]) were 75 nM and 13 nM, respectively.
Consider `C=CC(=O)Nc1ccc(N2CC(N3CCN(c4ccc5c(c4)-c4nc(N6C(=O)OC[C@H]6C)cn4CCO5)CC3)C2)cn1` [Compound 147], for which the IC50 in assay [1] (setting [5]) was 29 nM; in assay [2] (setting [6]), 1.5 nM.
Turning to `COCCNC(C)(C)C=C(C#N)C(=O)Nc1cnc(N2CC(N3CCN(c4ccc5c(c4)-c4nc(N6C(=O)OC[C@H]6C(F)F)cn4CCO5)CC3)C2)nc1` [Compound 268], the 50% inhibitory concentration (IC50) in assay [1] (setting [3]) and in assay [2] (setting [4]) was under 50 nM each time.
For `N#CC(=CC1CCCC1)C(=O)Nc1ccc(N2CC(N3CCN(c4ccc5c(c4)-c4nc(N6C(=O)OC[C@H]6C(F)F)cn4CCO5)CC3)C2)cc1` [Compound 393], the IC50 in assay [1] (setting [3]) and in assay [2] (setting [4]) was under 50 nM each time.
Regarding `C=C(C)C(=O)Nc1ccc(N2CC(CN3CCN(c4ccc5c(c4)-c4nc(N6C(=O)OC[C@H]6C(F)F)cn4CCO5)CC3)C2)cc1` [Compound 45], the concentration for half-maximal inhibition (IC50) in assay [1] (setting [5]) is over 1000 nM; in assay [2] (setting [6]), 244 nM.
`N#CC(=CC1(N)CC1)C(=O)Nc1ccc(N2CC(N3CCN(c4ccc5c(c4)-c4nc(N6C(=O)OC[C@H]6C(F)F)cn4CCO5)CC3)C2)c(F)c1` [Compound 235]: the half-maximal inhibitory concentration (IC50) in assay [1] (setting [3]) and in assay [2] (setting [4]) was under 50 nM throughout.
Consider `C=CC(=O)N1CC[C@H](C(=O)NCC(=O)N2CCN(c3ccc4c(c3)-c3nc(N5C(=O)OC[C@H]5C(F)F)cn3CCO4)CC2)C1` [Compound 3], for which the figures for the IC50 in assay [1] (setting [5]) and in assay [2] (setting [6]) were 282 nM and 62 nM, respectively.
Take `CN(C)C/C=C/C(=O)Nc1ccc(N2CC(N3CCN(c4ccc5c(c4)-c4nc(N6C(=O)OC[C@H]6C(F)F)cn4CCO5)CC3)C2)nn1` [Compound 287]: the half-inhibitory concentration (IC50) in assay [1] (setting [3]) and in assay [2] (setting [4]) was under 50 nM throughout.
In the case of `C=CC(=O)Nc1ccc(CCC(=O)N2CCN(c3ccc4c(c3)-c3nc(N5C(=O)OC[C@H]5C(F)F)cn3CCO4)CC2)cc1` [Compound 11], the IC50 in assay [1] (setting [5]) was found to be 298 nM; in assay [2] (setting [6]) it was 58 nM.
The matching figures for `C=CC(=O)Nc1ccc(N2CCC(CN3CCN(c4ccc5c(c4)-c4nc(N6C(=O)OC[C@H]6C(F)F)cn4CCO5)CC3)CC2)cc1` [Compound 12]: 399 nM and 49 nM.
Turning to `COC(C)(C)C=C(C#N)C(=O)Nc1ccc(N2CC(N3CCN(c4ccc5c(c4)-c4nc(N6C(=O)OC[C@H]6C(F)F)cn4CCO5)CC3)C2)nc1` [Compound 249], the IC50 in assay [1] (setting [3]) and in assay [2] (setting [4]) was under 50 nM each time.
With `N#CC(=CC1CC1)C(=O)Nc1ccc(N2CC(N3CCN(c4ccc5c(c4)-c4nc(N6C(=O)OC[C@H]6C(F)F)cn4CCO5)CC3)C2)c(F)c1` [Compound 227], the IC50 in assay [1] (setting [3]) and in assay [2] (setting [4]) was under 50 nM throughout.
With `CN1CCN(C(C)(C)C=C(C#N)C(=O)Nc2ccc(N3CC(N4CCN(c5ccc6c(c5)-c5nc(N7C(=O)OC[C@H]7C(F)F)cn5CCO6)CC4)C3)cc2)CC1=O` [Compound 308], the concentration for half-maximal inhibition (IC50) in assay [1] (setting [3]) and in assay [2] (setting [4]) was under 50 nM in each case.
`CC(C)(C=C(C#N)C(=O)Nc1ccc(N2CC(N3CCN(c4ccc5c(c4)-c4nc(N6C(=O)OC[C@H]6C(F)F)cn4CCO5)CC3)C2)c(F)c1)NC1(C)COC1` [Compound 384]: the IC50 in assay [1] (setting [3]) and in assay [2] (setting [4]) was under 50 nM each time.
In the case of `CC(C)(C)OC(=O)NC1(C=C(C#N)C(=O)Nc2ccc(N3CC(N4CCN(c5ccc6c(c5)-c5nc(N7C(=O)OC[C@H]7C(F)F)cn5CCO6)CC4)C3)cc2)CC1` [Compound 326], the IC50 in assay [1] (setting [3]) and in assay [2] (setting [4]) was under 50 nM each time.
With `CN(C)C(C)(C)C=C(C#N)C(=O)Nc1ccc(N2CC(N3CCN(c4ccc5c(c4)-c4nc(N6C(=O)OC[C@H]6C(F)F)cn4CCO5)CC3)C2)cc1` [Compound 150], the IC50 in assay [1] (setting [5]) stood at 121 nM; in assay [2] (setting [6]) it was 35 nM.
`CN(C1COC1)C(C)(C)C=C(C#N)C(=O)Nc1ccc(N2CC(N3CCN(c4ccc5c(c4)-c4nc(N6C(=O)OC[C@H]6C(F)F)cn4CCO5)CC3)C2)nn1` [Compound 295]: the IC50 in assay [1] (setting [3]) and in assay [2] (setting [4]) was under 50 nM in each case.
With `CN(C)C/C=C/C(=O)Nc1ccc(N2CC(N3CCN(c4ccc5c(c4)-c4nc(N6C(=O)OC[C@H]6C(F)F)cn4CCO5)CC3)C2)cc1Cl` [Compound 365], the IC50 in assay [1] (setting [3]) and in assay [2] (setting [4]) was under 50 nM in each case.
Turning to `Cc1cc2c(cc1N1CCN(C3CN(c4ccc(NC(=O)C(C#N)=CC(C)(C)C)cc4)C3)CC1)-c1nc(N3C(=O)OC[C@H]3C(F)F)cn1CCO2` [Compound 320], the IC50 in assay [1] (setting [3]) and in assay [2] (setting [4]) was under 50 nM each time.
In the case of `CC(C)(N)C=C(C#N)C(=O)Nc1ccc(N2CC(N3CCN(c4ccc5c(c4)-c4nc(N6C(=O)OC[C@H]6C(F)F)cn4CCO5)CC3)C2)cn1` [Compound 291], the IC50 in assay [1] (setting [3]) and in assay [2] (setting [4]) was under 50 nM in each case.
Turning to `C=CC(=O)Nc1ccc(N2CC(C3CCN(c4ccc5c(c4)-c4nc(N6C(=O)OC[C@H]6C(F)F)cn4CCO5)CC3)C2)cc1` [Compound 130], the IC50 was 70 nM in assay [1] (setting [5]) and 14 nM in assay [2] (setting [6]).
As for `COC(C)(C)C=C(C#N)C(=O)Nc1ccc(N2CC(N3CCN(c4ccc5c(c4)-c4nc(N6C(=O)OC[C@H]6C(F)F)cn4CCO5)CC3)C2)cc1` [Compound 212], the IC50 in assay [1] (setting [3]) and in assay [2] (setting [4]) was under 50 nM each time.
Take `C=CC(=O)Nc1ccc(N2CC(N3CCN(c4ccc5c(c4)-c4nc(N6C(=O)OC[C@H]6C(F)F)cn4CCO5)CC3)C2)nc1C` [Compound 216]: the IC50 in assay [1] (setting [3]) and in assay [2] (setting [4]) was under 50 nM throughout.
